Laboratory results reported in patent publication US4471131A, “Novel silyl esters of N-phosphonomethylglycine” (Monsanto Company, priority 1983, dated 1984).

Columns and labels:
Assay in all cases: post-emergence herbicidal activity, greenhouse
Type in all cases: in vivo
[1] = tested on: Quackgrass; conditions: Table II
How it was run: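 After sowing in soil-filled pans and growing under greenhouse conditions, plants at two to three weeks were sprayed post-emergence with the test compound in a formulation containing approximately 0.4% emulsifier by weight. Observations of plant injury, relative to controls, followed at about two and four weeks.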

[2] = tested on: Cocklebur
How it was run: (§1)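 Each treated pan, grown from seed in topsoil and watered from below, was sprayed at the age of two to three weeks with a solution or suspension of about 0.4% emulsifier by weight carrying the test compound. Injury relative to control pans was recorded roughly two and four weeks afterward.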

[3] = tested on: Sugar Beet; conditions: Table III
How it was run: as §1

[4] = tested on: Johnsongrass; conditions: Table II
How it was run: as §1

[5] = tested on: Morningglory
How it was run: as §1

[6] = tested on: Panicum Spp; conditions: Table III; 2 WAT; 1.1 kg/h
How it was run: as §1

[7] = 2 WAT, 5.6 kg/h, formulated in anhydrous tetrahydrofuran
[8] = 2 WAT, 11.2 kg/h, formulated in anhydrous tetrahydrofuran
[9] = 4 WAT, 5.6 kg/h, formulated in anhydrous tetrahydrofuran
[10] = 4 WAT, 11.2 kg/h, formulated in anhydrous tetrahydrofuran
[11] = Table II, 2 WAT, 5.6 kg/h, formulated in anhydrous tetrahydrofuran
[12] = Table II, 2 WAT, 11.2 kg/h, formulated in anhydrous tetrahydrofuran
[13] = Table II, 4 WAT, 5.6 kg/h, formulated in anhydrous tetrahydrofuran
[14] = Table II, 4 WAT, 11.2 kg/h, formulated in anhydrous tetrahydrofuran
[15] = Table III, 2 WAT, 1.1 kg/h, formulated in anhydrous tetrahydrofuran
[16] = Table III, 2 WAT, 5.6 kg/h, formulated in anhydrous tetrahydrofuran
[17] = Table III, 2 WAT, .28 kg/h, formulated in anhydrous tetrahydrofuran
[18] = Table III, 4 WAT, 1.1 kg/h, formulated in anhydrous tetrahydrofuran
[19] = Table III, 4 WAT, 5.6 kg/h, formulated in anhydrous tetrahydrofuran
[20] = Table III, 4 WAT, .28 kg/h, formulated in anhydrous tetrahydrofuran

## CCCCOC(=O)CNCP(=O)(O)O[Si](c1ccccc1)(c1ccccc1)C(C)(C)C [Ex. 6, Glycine, N--((([(1,1-Dimethylethyl)Diphenylsilyl]Oxy)Hydroxyphosphinyl)methyl)-Butyl Ester]
[1]; 2 WAT, 5.6 kg/h
  Plant Response Index (H): 0 (0-24% inhibition)
[1]; [7]
  Plant Response Index (H): 0 (0-24% inhibition)
[1]; 2 WAT, 11.2 kg/h
  Plant Response Index (H): 1 (25-49% inhibition)
[1]; [8]
  Plant Response Index (H): 0 (0-24% inhibition)
[1]; 4 WAT, 5.6 kg/h
  Plant Response Index (H): 0 (0-24% inhibition)
[1]; [9]
  Plant Response Index (H): 1 (25-49% inhibition)
[1]; 4 WAT, 11.2 kg/h
  Plant Response Index (H): 4 (100% inhibition)
[1]; [10]
  Plant Response Index (H): 0 (0-24% inhibition)
[2]; Table II, 2 WAT, 5.6 kg/h
  Plant Response Index (B): 1 (25-49% inhibition)
[2]; [11]
  Plant Response Index (B): 1 (25-49% inhibition)
[2]; Table II, 2 WAT, 11.2 kg/h
  Plant Response Index (B): 2 (50-74% inhibition)
[2]; [12]
  Plant Response Index (B): 1 (25-49% inhibition)
[2]; Table II, 4 WAT, 5.6 kg/h
  Plant Response Index (B): 1 (25-49% inhibition)
[2]; [13]
  Plant Response Index (B): 1 (25-49% inhibition)
[2]; Table II, 4 WAT, 11.2 kg/h
  Plant Response Index (B): 2 (50-74% inhibition)
[2]; [14]
  Plant Response Index (B): 2 (50-74% inhibition)
[2]; Table III, 2 WAT, 1.1 kg/h
  Plant Response Index (B): 2 (50-74% inhibition)
[2]; [15]
  Plant Response Index (B): 1 (25-49% inhibition)
[2]; Table III, 2 WAT, 5.6 kg/h
  Plant Response Index (B): 3 (75-99% inhibition)
[2]; [16]
  Plant Response Index (B): 2 (50-74% inhibition)
[2]; Table III, 2 WAT, .28 kg/h
  Plant Response Index (B): 0 (0-24% inhibition)
[2]; [17]
  Plant Response Index (B): 1 (25-49% inhibition)
[2]; Table III, 4 WAT, 1.1 kg/h
  Plant Response Index (B): 2 (50-74% inhibition)
[2]; [18]
  Plant Response Index (B): 1 (25-49% inhibition)
[2]; Table III, 4 WAT, 5.6 kg/h
  Plant Response Index (B): 3 (75-99% inhibition)
[2]; [19]
  Plant Response Index (B): 2 (50-74% inhibition)
[2]; [20]
  Plant Response Index (B): 1 (25-49% inhibition)
[3]; 2 WAT, 1.1 kg/h
  Plant Response Index (M): 1 (25-49% inhibition)
[3]; 2 WAT, 1.1 kg/h, formulated in anhydrous tetrahydrofuran
  Plant Response Index (M): 1 (25-49% inhibition)
[3]; 2 WAT, 5.6 kg/h
  Plant Response Index (M): 2 (50-74% inhibition)
[3]; [7]
  Plant Response Index (M): 1 (25-49% inhibition)
[3]; 2 WAT, .28 kg/h
  Plant Response Index (M): 0 (0-24% inhibition)
[3]; 2 WAT, .28 kg/h, formulated in anhydrous tetrahydrofuran
  Plant Response Index (M): 0 (0-24% inhibition)
[3]; 4 WAT, 1.1 kg/h
  Plant Response Index (M): 1 (25-49% inhibition)
[3]; 4 WAT, 1.1 kg/h, formulated in anhydrous tetrahydrofuran
  Plant Response Index (M): 1 (25-49% inhibition)
[3]; 4 WAT, 5.6 kg/h
  Plant Response Index (M): 3 (75-99% inhibition)
[3]; [9]
  Plant Response Index (M): 1 (25-49% inhibition)
[3]; 4 WAT, .28 kg/h, formulated in anhydrous tetrahydrofuran
  Plant Response Index (M): 0 (0-24% inhibition)
[4]; 2 WAT, 5.6 kg/h
  Plant Response Index (I): 0 (0-24% inhibition)
[4]; [7]
  Plant Response Index (I): 0 (0-24% inhibition)
[4]; 2 WAT, 11.2 kg/h
  Plant Response Index (I): 1 (25-49% inhibition)
[4]; [8]
  Plant Response Index (I): 0 (0-24% inhibition)
[4]; 4 WAT, 5.6 kg/h
  Plant Response Index (I): 2 (50-74% inhibition)
[4]; [9]
  Plant Response Index (I): 1 (25-49% inhibition)
[4]; 4 WAT, 11.2 kg/h
  Plant Response Index (I): 0 (0-24% inhibition)
[4]; [10]
  Plant Response Index (I): 1 (25-49% inhibition)
[5]; Table II, 2 WAT, 5.6 kg/h
  Plant Response Index (D): 2 (50-74% inhibition)
[5]; [11]
  Plant Response Index (D): 1 (25-49% inhibition)
[5]; Table II, 2 WAT, 11.2 kg/h
  Plant Response Index (D): 2 (50-74% inhibition)
[5]; [12]
  Plant Response Index (D): 2 (50-74% inhibition)
[5]; Table II, 4 WAT, 5.6 kg/h
  Plant Response Index (D): 2 (50-74% inhibition)
[5]; [13]
  Plant Response Index (D): 2 (50-74% inhibition)
[5]; Table II, 4 WAT, 11.2 kg/h
  Plant Response Index (D): 2 (50-74% inhibition)
[5]; [14]
  Plant Response Index (D): 2 (50-74% inhibition)
[5]; Table III, 2 WAT, 1.1 kg/h
  Plant Response Index (D): 2 (50-74% inhibition)
[5]; [15]
  Plant Response Index (D): 2 (50-74% inhibition)
[5]; Table III, 2 WAT, 5.6 kg/h
  Plant Response Index (D): 2 (50-74% inhibition)
[5]; [16]
  Plant Response Index (D): 2 (50-74% inhibition)
[5]; Table III, 2 WAT, .28 kg/h
  Plant Response Index (D): 1 (25-49% inhibition)
[5]; [17]
  Plant Response Index (D): 1 (25-49% inhibition)
[5]; Table III, 4 WAT, 1.1 kg/h
  Plant Response Index (D): 2 (50-74% inhibition)
[5]; [18]
  Plant Response Index (D): 2 (50-74% inhibition)
[5]; Table III, 4 WAT, 5.6 kg/h
  Plant Response Index (D): 3 (75-99% inhibition)
[5]; [19]
  Plant Response Index (D): 2 (50-74% inhibition)
[5]; [20]
  Plant Response Index (D): 1 (25-49% inhibition)
[6]
  Plant Response Index (S): 3 (75-99% inhibition)
